Source: BindingDB's records for doi:10.1016/s0960-894x(00)00161-x (University of Tokyo, 2000)

Assay: Inhibition of Beta-glucosidase activity.

SMILES | IC50 [µM]
O=C1c2c(Cl)c(Cl)c(Cl)c(Cl)c2C(=O)N1CCCCCc1ccccc1 [4,5,6,7-Tetrachloro-2-(5-phenyl-pentyl)-isoindole-1,3-dione] | > 500
O=C1c2cccc([N+](=O)[O-])c2C(=O)N1c1ccccc1 | > 500
O=C1c2ccccc2C(=O)N1CCCc1ccccc1 [2-(3-Phenyl-propyl)-isoindole-1,3-dione] | > 500
O=C1c2c(Cl)c(Cl)c(Cl)c(Cl)c2C(=O)N1CCCCCCc1ccccc1 [4,5,6,7-Tetrachloro-2-(6-phenyl-hexyl)-isoindole-1,3-dione] | > 500
O=C1c2ccccc2C(=O)N1c1ccccc1 [2-Phenyl-isoindole-1,3-dione] | > 500
O=C1c2c(Cl)c(Cl)c(Cl)c(Cl)c2C(=O)N1Cc1ccccc1 [2-Benzyl-4,5,6,7-tetrachloro-isoindole-1,3-dione] | > 500
O=C1c2ccc([N+](=O)[O-])cc2C(=O)N1c1ccccc1 [5-Nitro-2-phenyl-isoindole-1,3-dione] | > 500
Nc1ccc2c(c1)C(=O)N(c1ccccc1)C2=O [5-Amino-2-phenyl-isoindole-1,3-dione] | > 500
O=C1c2c(Cl)c(Cl)c(Cl)c(Cl)c2C(=O)N1CCCc1ccccc1 [4,5,6,7-Tetrachloro-2-(3-phenyl-propyl)-isoindole-1,3-dione] | > 500
O=C1c2cccc(O)c2C(=O)N1c1ccccc1 [4-Hydroxy-2-phenyl-isoindole-1,3-dione] | > 500
O=C1c2c(Cl)c(Cl)c(Cl)c(Cl)c2C(=O)N1CCCCc1ccccc1 [4,5,6,7-tetrachloro-2-(4-phenylbutyl)isoindoline-1,3-dione] | > 500
O=C1c2c(Cl)c(Cl)c(Cl)c(Cl)c2C(=O)N1CCc1ccccc1 [4,5,6,7-Tetrachloro-2-phenethyl-isoindole-1,3-dione] | > 500
O=C1c2ccccc2C(=O)N1CCc1ccccc1 [2-Phenethyl-isoindole-1,3-dione] | > 500
O=C1c2ccc(O)cc2C(=O)N1c1ccccc1 [5-hydroxy-2-phenylisoindoline-1,3-dione] | > 500
